In series [1] the target is T1, DP1 receptor (PTGDR) (Homo sapiens, UniProt Q13258).
T1 construct: host or cells: cAMP Hunter (DP receptor) cell line
T1 sequence (Q13258 1-359): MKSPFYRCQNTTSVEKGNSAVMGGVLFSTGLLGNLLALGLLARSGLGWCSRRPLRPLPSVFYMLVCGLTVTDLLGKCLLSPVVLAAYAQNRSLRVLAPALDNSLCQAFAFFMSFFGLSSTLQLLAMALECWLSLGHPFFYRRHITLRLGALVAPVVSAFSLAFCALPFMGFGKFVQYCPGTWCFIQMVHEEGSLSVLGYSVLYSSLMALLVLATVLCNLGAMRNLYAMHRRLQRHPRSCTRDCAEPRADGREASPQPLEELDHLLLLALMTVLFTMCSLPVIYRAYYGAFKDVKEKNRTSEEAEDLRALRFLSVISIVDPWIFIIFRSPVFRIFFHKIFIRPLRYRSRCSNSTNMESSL
The series can be described thus: cAMP Hunter cell-based prostanoid receptor assay, DP receptor. The note with it: HitHunter cAMP cell line. The protocol:
(§1) DiscoverX cell-based ligand binding assays were performed in the PathHunter beta-arrestin (EP1, EP2, EP3, EP4, FP, IP, and TP receptors) or cAMP Hunter™ (DP receptor) cell lines.
(§2) Receptor binding studies were performed in either the PathHunter® b-Arrestin (EP1, EP2, EP3, EP4, FP, IP, and TP receptors) or cAMP Hunter™ (DP receptor) cell lines. A 10 mM working stock of GP1681 was created in 1×PBS, pH 7.4. All assays were carried out in duplicate with 10 individual concentrations of GP1681. A three-fold dilution series of GP1681 was established for the initial or pilot experiment with a starting concentration of 4 uM (starting concentration was chosen based on previous Gemmus Pharma preclinical experimental results).
(§3) GP1681 was incubated with cells lines at either 37° C. or room temperature, for 90-180 minutes (temperatures and incubation times are all dependent on established optimized procedures for each receptor cell line) after which cell wells were processed and signal production detected. […] Vehicle only controls (PBS, pH 7.4) were also included for each receptor cell line. Receptor binding activity was analyzed using CBIS data analysis suite (ChemInnovation, CA). The percentage of activity was calculated using the following formula: % Activity=100%×(mean RLU of test sample−mean RLU of vehicle control)/(mean MAX control ligand−mean RLU of vehicle control). Dose curves were performed and EC50 values determined.
(§4) The four assays were repeated with a higher starting concentration.
(§5) The second experimental run of the receptor binding assay was performed with these last four cell lines including GP1681 and their respective positive and negative (vehicle, PBS pH 7.4) controls. A 10 mM GP1681 working stock was again created in 1×PBS, pH 7.4. A three-fold serial dilution scheme was again used for GP1681 samples, starting this time at a concentration of 500 μM. The remainder of the second experimental run was performed in the same manner as run 1.

The target of series [2] is T2, EP1 receptor (PTGER1) (Homo sapiens, UniProt P34995).
T2 construct: host or cells: PathHunter beta-arrestin cell line
T2 sequence (P34995 1-402): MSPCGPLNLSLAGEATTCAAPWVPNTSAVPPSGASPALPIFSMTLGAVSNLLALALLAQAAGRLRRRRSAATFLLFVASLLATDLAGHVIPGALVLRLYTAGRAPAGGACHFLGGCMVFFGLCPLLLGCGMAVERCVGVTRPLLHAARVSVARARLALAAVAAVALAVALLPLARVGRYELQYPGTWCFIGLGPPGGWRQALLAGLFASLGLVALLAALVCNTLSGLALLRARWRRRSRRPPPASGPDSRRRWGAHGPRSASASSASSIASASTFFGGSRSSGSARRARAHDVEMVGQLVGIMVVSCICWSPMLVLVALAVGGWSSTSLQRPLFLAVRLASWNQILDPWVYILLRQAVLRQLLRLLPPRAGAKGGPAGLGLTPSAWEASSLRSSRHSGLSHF
The series can be described thus: PathHunter beta-arrestin cell-based prostanoid receptor assay, EP1. The note with it: β-Arrestin. The protocol:
as §1, §2, §3, §4, §5

The target of series [3] is T3, EP2 receptor (PTGER2) (Homo sapiens, UniProt P43116).
T3 construct: host or cells: PathHunter beta-arrestin cell line
T3 sequence (P43116 whole entry): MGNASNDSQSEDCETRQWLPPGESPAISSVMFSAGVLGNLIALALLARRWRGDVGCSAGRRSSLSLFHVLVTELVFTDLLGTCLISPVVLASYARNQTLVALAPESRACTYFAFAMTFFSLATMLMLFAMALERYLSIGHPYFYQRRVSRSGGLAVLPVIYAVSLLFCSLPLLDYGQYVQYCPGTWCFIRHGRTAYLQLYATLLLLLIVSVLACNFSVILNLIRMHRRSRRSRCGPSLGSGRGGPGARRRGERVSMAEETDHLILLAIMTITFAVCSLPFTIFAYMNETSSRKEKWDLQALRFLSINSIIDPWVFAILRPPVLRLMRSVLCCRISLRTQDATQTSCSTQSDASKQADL
As to the kind of experiment: PathHunter beta-arrestin cell-based prostanoid receptor assay, EP2. The protocol: as §1, §2
GP1681 was incubated with cells lines at either 37° C. or room temperature, for 90-180 minutes (temperatures and incubation times are all dependent on established optimized procedures for each receptor cell line) after which cell wells were processed and signal production detected. […] Receptor binding activity was analyzed using CBIS data analysis suite (ChemInnovation, CA). The percentage of activity was calculated using the following formula: % Activity=100%×(mean RLU of test sample−mean RLU of vehicle control)/(mean MAX control ligand−mean RLU of vehicle control). Dose curves were performed and EC50 values determined.

Series [4] in a line: Stability of GP1681 dosing formulations at room temperature by UHPLC. It is filed as physicochemical. The note with it: 10% (w/v) PEG 400 in calcium and magnesium free PBS, pH 7.4; 0.0319 and 0.0596 mg/mL. The protocol:
GP1681 in 10% (w/v) polyethylene glycol (PEG) 400 in calcium and magnesium free phosphate buffered saline (PBS), pH 7.4 was used for evaluation by ultra-high performance liquid chromatography (UHPLC; Agilent 1290 UHPLC instrument).
Dosing formulations of GP1681 (0, 0.01, 0.03, and 0.05 mg/mL) in 10% (w/v) PEG 400 in calcium and magnesium free PBS, pH 7.4 were collected and analyzed by UHPLC to assess accuracy of the preparation. Aliquots from the top, middle and bottom of the formulations were collected and analyzed to assess homogeneity of the formulations. The dosing formulations were diluted to bring the test article concentration to a suitable level within the calibration range. The samples were initially analyzed on the day of preparation. However, due to unacceptable results observed, the backup samples (stored at −10 to −30° C.) were analyzed five days later.
The concentration of GP1681 was calculated by reference to the solvent standard solutions prepared and analyzed concurrently with the dosing formulations. […]
Stability of the dosing formulations was determined by storing the middle aliquots of the high and low primary dose formulation samples in the Definitive Assay at room temperature for 3.7 hours and reanalyzing as described above. The results met the acceptance criterion of 90-110% of the concentration determined at T=0.

Setting [5] is: Run 1, GP1681 starting concentration 4 uM, curve for GP1681 not fully sigmoidal.
Setting [6] is: Run 2, GP1681 starting concentration 500 μM.

Each structure is given as a SMILES string.

On to `CC#CCC(C)C(O)C=CC1C(O)CC2Oc3c(CCCC(=O)O)cccc3C21` (single isomer, unassigned) [GP1681, esuberaprost], for which the EC50 – broadly, the concentration needed to bring the measured effect to its halfway point – was 1.35 µM in series [1] (setting [5]); 1.33 µM in series [1] (setting [6]); 1.08 µM in series [2] (setting [5]); 7.81 µM in series [2] (setting [6]); > 4 µM in series [3] (Run 1, GP1681 starting concentration 4 uM, β-Arrestin). In addition, the “binding to EP2 receptor, in words” value in series [3] was “does not bind”. Moreover, the “stable at room temperature” value in series [4] is listed as “at least 3.7 hours”.

Source of the values: patent US12042503B2, “Compositions and methods for treating coronavirus infections” (priority 2020, dated 2024).
